In ChEMBL document CHEMBL6153065, “Heterologous Expression and Characterization of Estercin A, a Class II Lanthipeptide Derived from Clostridium estertheticum CF016, with Antimicrobial Activity against Clinically Relevant Pathogens” (2025) one finds Activity and MIC data, which are given here for 4 molecules.

Converted amounts (≈) assume the structure as drawn. The source made the active and inactive calls. The calls are words filed in the database; no cut-off is given here.

The subject of assay [1] is Bacillus cereus. The assay is described as follows: Antibacterial activity against Bacillus cereus ATCC14579 assessed as inhibition of bacterial growth at 1 mg/ml incubated for 16 hrs by agar well diffusion assay relative to control. It counts as functional. For orientation: A growth-free zone around the sample is the usual read-out of agar diffusion tests.
Assay [2] relates to Staphylococcus aureus. As to the kind of experiment: Antibacterial activity against Staphylococcus aureus LMG15975 assessed as inhibition of bacterial growth at 1 mg/ml incubated for 16 hrs by agar well diffusion assay relative to control. It counts as functional.
For assay [3], the system named is Lactococcus lactis. The assay is described as follows: Antibacterial activity against Lactococcus lactis MG1363 assessed as inhibition of bacterial growth at 1 mg/ml incubated for 16 hrs by agar well diffusion assay relative to control. The format is functional.
In assay [4] the test system is Bacillus cereus. The assay is described as follows: Antibacterial activity against Bacillus cereus ATCC14579 assessed as inhibition of bacterial growth by measuring increased activity more than estercin A (100%) at 1 mg/ml incubated for 16 hrs by agar well diffusion assay. It counts as functional. Also noted: scale not given: the % may be the effect or the level left.

The subject of assay [5] is Lactococcus lactis. As to the kind of experiment: Antibacterial activity against Lactococcus lactis MG1363 assessed as inhibition of bacterial growth by measuring increased activity more than estercin A (100%) at 1 mg/ml incubated for 16 hrs by agar well diffusion assay. The format is functional. Further details: scale not given: the % may be the effect or the level left.

The test system of assay [6] is Lactococcus lactis. As to the kind of experiment: Antibacterial activity against Lactococcus lactis MG1363 assessed as bacterial growth inhibition incubated for 18 hrs by Mueller-Hinton broth based doubling dilution method. It counts as functional.
Assay [7] concerns Listeria monocytogenes. As to the kind of experiment: Antibacterial activity against Listeria monocytogenes LMG10470 assessed as bacterial growth inhibition incubated for 18 hrs by Mueller-Hinton broth based doubling dilution method. The format is functional.
For assay [8], the system named is Staphylococcus aureus. The assay is described as follows: Antibacterial activity against Staphylococcus aureus LMG10147 assessed as bacterial growth inhibition incubated for 18 hrs by Mueller-Hinton broth based doubling dilution method. It counts as functional.
For assay [9], the system named is Staphylococcus aureus. The assay is described as follows: Antibacterial activity against methicillin-resistant Staphylococcus aureus LMG15975 assessed as bacterial growth inhibition incubated for 18 hrs by Mueller-Hinton broth based doubling dilution method. It counts as functional.
Assay [10] has as its system Enterococcus faecalis. As to the kind of experiment: Antibacterial activity against vancomycin-resistant Enterococcus faecalis LMG16216 assessed as bacterial growth inhibition incubated for 18 hrs by Mueller-Hinton broth based doubling dilution method. It counts as functional.
Assay [11] relates to Enterococcus faecium. The assay is described as follows: Antibacterial activity against vancomycin-resistant Enterococcus faecium LMG16003 assessed as bacterial growth inhibition incubated for 18 hrs by Mueller-Hinton broth based doubling dilution method. It counts as functional.
Assay [12] has as its system Bacillus cereus. As to the kind of experiment: Antibacterial activity against Bacillus cereus ATCC14579 assessed as bacterial growth inhibition incubated for 18 hrs by Mueller-Hinton broth based doubling dilution method. It counts as functional.
The subject of assay [13] is Clostridium botulinum. As to the kind of experiment: Antibacterial activity against Clostridium botulinum CECT551 assessed as bacterial growth inhibition incubated for 18 hrs by Mueller-Hinton broth based doubling dilution method. The format is functional.
Assay [14] concerns Clostridium perfringens. As to the kind of experiment: Antibacterial activity against Clostridium perfringens CECT376 assessed as bacterial growth inhibition incubated for 18 hrs by Mueller-Hinton broth based doubling dilution method. The format is functional.
The subject of assay [15] is Clostridium tetani. The assay is described as follows: Antibacterial activity against Clostridium tetani CECT4629 assessed as bacterial growth inhibition incubated for 18 hrs by Mueller-Hinton broth based doubling dilution method. The format is functional.
The subject of assay [16] is Lactococcus lactis. As to the kind of experiment: Antibacterial activity against Lactococcus lactis MG1363 assessed as bacterial death at 10 times of MIC by time killing assay. The format is functional, organism-based.
Assay [17] deals with Lactococcus lactis. The assay is described as follows: Binding affinity to Lactococcus lactis MG1363 lipid II at 8 ug by Spot-on-lawn assay. To be noted: dose 8.0 µg.
For assay [18], the system named is Cell membrane. As to the kind of experiment: Induction of membrane permeabilization in Lactococcus lactis MG1363 assessed as pore forming ability by measuring increase in red fluorescence at 2 times MIC measured after 15 mins by SYTO-9 Green dye/red PI staining based fluorescence microscopy. It counts as subcellular.
In assay [19] the test system is Lactococcus lactis. As to the kind of experiment: Antibacterial activity against Lactococcus lactis MG1363 at 1 mg/ml incubated under 22 degreeC for 4 hrs. It counts as functional, organism-based.
In assay [20] the test system is Lactococcus lactis. As to the kind of experiment: Antibacterial activity against Lactococcus lactis MG1363 at 1 mg/ml incubated under 55 degreeC for 4 hrs. The format is functional, organism-based.
Assay [21] relates to Lactococcus lactis. As to the kind of experiment: Antibacterial activity against Lactococcus lactis MG1363 at 1 mg/ml incubated at pH 2 for 4 hrs. It counts as functional, organism-based.
Assay [22] deals with Lactococcus lactis. As to the kind of experiment: Antibacterial activity against Lactococcus lactis MG1363 at 1 mg/ml incubated at pH 4 for 4 hrs. It counts as functional, organism-based.
Assay [23] deals with Lactococcus lactis. The assay is described as follows: Antibacterial activity against Lactococcus lactis MG1363 at 1 mg/ml incubated at pH 7 for 4 hrs. It counts as functional, organism-based.
Assay [24] deals with Lactococcus lactis. The assay is described as follows: Antibacterial activity against Lactococcus lactis MG1363 at 1 mg/ml incubated for 2 hrs in presence of trypsin by agar plate method. The format is functional, organism-based.
The subject of assay [25] is Lactococcus lactis. As to the kind of experiment: Antibacterial activity against Lactococcus lactis MG1363 at 1 mg/ml incubated under 95 degreeC for 4 hrs. It counts as functional, organism-based.
In assay [26] the test system is Lactococcus lactis. As to the kind of experiment: Antibacterial activity against Lactococcus lactis MG1363 at 1 mg/ml incubated at pH 10 for 4 hrs. The format is functional, organism-based.

`C=C1NC(=O)[C@H](C(C)C)NC(=O)[C@@H]2CSC[C@@H](C(=O)N[C@@H](CCCCN)C(=O)O)NC(=O)[C@H](CSC[C@H]3NC(=O)[C@H](Cc4ccccc4)NC(=O)[C@@H](NC(=O)[C@@H](NC(=O)[C@@H](NC(=O)[C@@H](NC(=O)CNC(=O)CNC(=O)CN)C(C)C)[C@@H](C)CC)[C@@H](C)O)CSC[C@H](NC(=O)[C@H](CCC(=O)O)NC(=O)[C@H](Cc4c[nH]cn4)NC3=O)C(=O)N[C@@H](Cc3ccc(O)cc3)C(=O)N[C@@H](Cc3ccc(O)cc3)C(=O)N[C@@H](CC(N)=O)C(=O)N2)NC(=O)[C@H]([C@@H](C)O)NC(=O)CNC(=O)[C@H](Cc2c[nH]c3ccccc23)NC(=O)[C@H](CO)NC(=O)[C@H](C)NC(=O)[C@@H]2CCCN2C1=O`: the outcome in assay [1], in assay [2] and in [3] was inactive.
As to `C=C1NC(=O)[C@H](C(C)C)NC(=O)[C@@H]2CSC[C@@H](C(=O)N[C@@H](CCCCN)C(=O)O)NC(=O)[C@H](CSC[C@@H]3NC(=O)[C@H](Cc4ccccc4)NC(=O)[C@@H](NC(=O)[C@H](CC(N)=O)NC(=O)[C@@H](NC(=O)[C@@H](NC(=O)CNC(=O)CNC(=O)CN)C(C)C)[C@@H](C)CC)CSC[C@H](NC(=O)[C@H](CCC(=O)O)NC(=O)[C@H](Cc4c[nH]cn4)NC3=O)C(=O)N[C@@H](Cc3ccc(O)cc3)C(=O)N[C@@H](Cc3ccc(O)cc3)C(=O)N[C@@H](CC(N)=O)C(=O)N2)NC(=O)CNC(=O)CNC(=O)[C@H](Cc2c[nH]c3ccccc23)NC(=O)[C@H](CO)NC(=O)[C@H](C)NC(=O)[C@@H]2CCCN2C1=O`, the Activity in [1], in assay [2] and in [3] was 100% throughout.
As for `C=C1NC(=O)[C@H](C(C)C)NC(=O)[C@@H]2CSC[C@@H](C(=O)N[C@@H](CCCCN)C(=O)O)NC(=O)[C@H](CSC[C@@H]3NC(=O)[C@H](Cc4ccccc4)NC(=O)[C@@H](NC(=O)[C@@H](NC(=O)[C@@H](NC(=O)[C@@H](NC(=O)CNC(=O)[C@H](CC(N)=O)NC(=O)CN)C(C)C)[C@@H](C)CC)[C@@H](C)O)CSC[C@H](NC(=O)[C@H](CCC(=O)O)NC(=O)[C@H](Cc4c[nH]cn4)NC3=O)C(=O)N[C@@H](Cc3ccc(O)cc3)C(=O)N[C@@H](Cc3ccc(O)cc3)C(=O)N[C@@H](CC(N)=O)C(=O)N2)NC(=O)CNC(=O)CNC(=O)[C@H](Cc2c[nH]c3ccccc23)NC(=O)[C@H](CO)NC(=O)[C@H](C)NC(=O)[C@@H]2CCCN2C1=O`, the Activity in [2] is listed as 100%; in [4], 20%; in [5] it was 20%.
Broadly, the MIC is the lowest concentration found to suppress growth. As to `C=C1NC(=O)[C@H](C(C)C)NC(=O)[C@@H]2CSC[C@@H](C(=O)N[C@@H](CCCCN)C(=O)O)NC(=O)[C@H](CSC[C@@H]3NC(=O)[C@H](Cc4ccccc4)NC(=O)[C@@H](NC(=O)[C@@H](NC(=O)[C@@H](NC(=O)[C@@H](NC(=O)CNC(=O)CNC(=O)CN)C(C)C)[C@@H](C)CC)[C@@H](C)O)CSC[C@H](NC(=O)[C@H](CCC(=O)O)NC(=O)[C@H](Cc4c[nH]cn4)NC3=O)C(=O)N[C@@H](Cc3ccc(O)cc3)C(=O)N[C@@H](Cc3ccc(O)cc3)C(=O)N[C@@H](CC(N)=O)C(=O)N2)NC(=O)CNC(=O)CNC(=O)[C@H](Cc2c[nH]c3ccccc23)NC(=O)[C@H](CO)NC(=O)[C@H](C)NC(=O)[C@@H]2CCCN2C1=O`, the MIC in assay [6] was 4 µg/mL (≈ 1.47 µM); in assay [7] it was more than 64 µg/mL; in assay [8], 16 µg/mL (≈ 5.87 µM); in assay [9], 4 µg/mL (≈ 1.47 µM); in [10] it was 64 µg/mL (≈ 23.5 µM); in assay [11] it was 64 µg/mL (≈ 23.5 µM). For the same molecule, the MIC in assay [12] was determined as 8 µg/mL (≈ 2.94 µM); in [13] it was 32 µg/mL (≈ 11.7 µM); in assay [14], 1 µg/mL (≈ 0.367 µM); in assay [15], 4 µg/mL (≈ 1.47 µM). The Activity entry was “Not active; Slower Rate Of Killing Observed” in assay [16]; “Not active; Only Green Fluorescence Observed” in assay [18]; “Active; More Resistant Compared To Nisin” in assay [24]; 100% in assay [1]; 100% in assay [2]; 100% in assay [3]. The Activity result in [25] was “Not active; Less Than 30% Reduction In Activity Observed Relative To Control”. For the same molecule, the outcome in assay [17], in assay [21], in assay [22], in assay [23] and in [26] was Active. Moreover, the result in assay [19] and in assay [20] was inactive.
